Assay results: patent US11198695B2, “Fused ring derivative having MGAT-2 inhibitory activity” (Shionogi & Co., Ltd., priority 2017, dated 2021)

Molecular target: recombinant human MGAT2 (Homo sapiens (Human), UniProt Q3SYC2)
Assay: Measurement of human MGAT2 inhibitory activity
Type: biochemical
Details: read-out: IC50 (concentration exhibiting 50% enzyme inhibition), Table 53
Summary of the method: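 RapidFire ESI-MS read-out of the diolein/diolein-d5 peak ratio gave % inhibition, with no-enzyme and full-enzyme wells as 100% and 0%. Reactions ran 1 h at room temperature at pH 7.4 (phosphate, 2 mmol/L DTT), using Flag-tagged human MGAT2 membranes from Sf9 cells and a substrate solution of 30 μmol/L 2-oleoylglycerol and 10 μmol/L oleoyl-CoA.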

Sequence of recombinant human MGAT2 (Q3SYC2 whole entry): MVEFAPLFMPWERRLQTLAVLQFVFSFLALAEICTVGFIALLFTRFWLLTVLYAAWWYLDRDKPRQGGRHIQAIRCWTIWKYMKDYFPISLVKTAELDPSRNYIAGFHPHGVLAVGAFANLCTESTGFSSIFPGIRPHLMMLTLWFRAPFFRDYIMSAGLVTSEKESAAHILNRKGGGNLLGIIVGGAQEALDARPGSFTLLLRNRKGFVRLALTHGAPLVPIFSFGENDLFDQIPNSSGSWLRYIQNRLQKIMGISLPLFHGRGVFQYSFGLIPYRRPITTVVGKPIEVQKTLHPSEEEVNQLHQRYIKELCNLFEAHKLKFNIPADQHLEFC

Row | IC50 | Compound
1 | 3.3 nM | CS(=O)(=O)CC(=O)Nc1c2c(nn1CCC1CC1)C[C@@]1(CCc3cc(N4CC(c5ccccc5)C4)ccc31)NC2=O [II-33]
2 | 41 nM | CS(=O)(=O)CC(=O)Nc1c2c(nn1CCC1CC1)C[C@@]1(CCc3cc(N4CC(F)C4)ccc31)NC2=O [II-34]
3 | 48 nM | CS(=O)(=O)CC(=O)Nc1c2c(nn1CCC1CC1)C[C@@]1(CCc3cc(N4CC(n5cccn5)C4)ccc31)NC2=O [II-35]
4 | 53 nM | CS(=O)(=O)CC(=O)Nc1c2c(nn1CCC1CC1)C[C@@]1(CCc3cc(N4CC5(CCOCC5)C4)ccc31)NC2=O [II-36]
5 | 12 nM | CC1(C)CN(c2ccc3c(c2)CC[C@@]32Cc3nn(CCC4CC4)c(NC(=O)CS(C)(=O)=O)c3C(=O)N2)C1 [II-37]
6 | 30 nM | CSCC(=O)Nc1c2c(nn1CCC1CC1)C[C@]1(CCc3cc(OCC(F)(F)F)ccc31)NC2=O [II-38]
7 | 42 nM | C[S+]([O-])CC(=O)Nc1c2c(nn1CCC1CC1)C[C@]1(CCc3cc(OCC(F)(F)F)ccc31)NC2=O (stereo partly shown) [II-39]
8 | 22 nM | CS(=O)(=O)CC(=O)Nc1c2c(nn1CCC1CC1)C[C@@]1(CCc3cc(N4CC(C(F)F)C4)ccc31)NC2=O [II-40]
9 | 40 nM | CC(C)OC1CN(c2ccc3c(c2)CC[C@@]32Cc3nn(CCC4CC4)c(NC(=O)CS(C)(=O)=O)c3C(=O)N2)C1 [II-41]
10 | 46 nM | CCOC1CN(c2ccc3c(c2)CC[C@@]32Cc3nn(CCC4CC4)c(NC(=O)CS(C)(=O)=O)c3C(=O)N2)C1 [II-42]
11 | 3 nM | CS(=O)(=O)CC(=O)Nc1c2c(nn1CCC1CC1)C[C@@]1(CCc3cc(N4CC(Oc5ccccc5)C4)ccc31)NC2=O [II-43]
12 | 51 nM | COC1(C)CN(c2ccc3c(c2)CC[C@@]32Cc3nn(CCC4CC4)c(NC(=O)CS(C)(=O)=O)c3C(=O)N2)C1 [II-44]
13 | 98 nM | COC(=O)CC1CN(c2ccc3c(c2)CC[C@@]32Cc3nn(CCC4CC4)c(NC(=O)CS(C)(=O)=O)c3C(=O)N2)C1 [II-45]
14 | 200 nM | CS(=O)(=O)CC(=O)Nc1c2c(nn1CCC1CC1)C[C@@]1(CCc3cc(N4CC5(COC5)C4)ccc31)NC2=O [II-50]
15 | 440 nM | CC(=O)Nc1c2c(nn1-c1ccc(C#N)cn1)C[C@@]1(CCc3cc(OCC(F)(F)F)ccc31)NC2=O [II-51]
16 | 37 nM | CS(=O)(=O)CC(=O)Nc1c2c(nn1-c1ccc(C#N)cn1)C[C@]1(CCc3ccccc31)NC2=O [II-52]
17 | 14 nM | CS(=O)(=O)CC(=O)Nc1c2c(nn1-c1ccc(C#N)cn1)CC1(CN(c3ccc(C(F)(F)F)cc3F)C1)NC2=O [II-53]
18 | 44 nM | CS(=O)(=O)CC(=O)Nc1c2c(nn1-c1ccc(C#N)cn1)C[C@]1(CCc3cc(N4CC(F)C4)ccc31)NC2=O [II-55]
19 | 47 nM | COCCCn1nc2c(c1-c1nn[nH]n1)C(=O)N[C@@]1(CCc3cc(OCCCC(F)(F)F)ccc31)C2 [II-56]
20 | 66 nM | COC1CN(c2ccc3c(c2)CC[C@]32Cc3nn(-c4ccc(C#N)cn4)c(NC(=O)CS(C)(=O)=O)c3C(=O)N2)C1 [II-57]
21 | 16 nM | CS(=O)(=O)CC(=O)Nc1c2c(nn1CCC1CC1)CC1(CN(c3ccc(C(F)(F)F)cc3)C1)NC2=O [II-58]
22 | 33 nM | N#Cc1ccc(-n2nc3c(c2NC(=O)c2cocn2)C(=O)N[C@@]2(CCc4cc(OCC(F)(F)F)ccc42)C3)nc1 [II-59]
23 | 93 nM | O=C(COC(F)(F)F)Nc1c2c(nn1CCC1CC1)C[C@]1(CCc3cc(OCC(F)(F)F)ccc31)NC2=O [II-60]
24 | 16.7 nM | Cn1c2c(c(NC(=O)CS(C)(=O)=O)c1-c1ccccc1)C(=O)N[C@@]1(CCc3cc(OCC(F)(F)F)ccc31)C2 [II-61]
25 | 15.3 nM | N#Cc1ccc(-n2nc3c(c2C(=O)NCC2(CO)COC2)C(=O)N[C@@]2(CCc4cc(OCC(F)(F)F)ccc42)C3)nc1 [II-62]

Row | IC50 | Compound
26 | 300 nM | CC(C)(O)C1CN(c2ccc3c(c2)CC[C@@]32Cc3nn(CCC4CC4)c(NC(=O)CS(C)(=O)=O)c3C(=O)N2)C1 [II-63]
27 | 2.9 nM | CS(=O)(=O)CC(=O)Nc1c2c(nn1CCCOC(F)(F)F)C[C@]1(CCOc3cc(OCC(F)(F)F)ccc31)NC2=O [II-64]
28 | 1.9 nM | CS(=O)(=O)CC(=O)Nc1c2c(nn1CCCC(F)(F)F)C[C@]1(CCOc3cc(OCC(F)(F)F)ccc31)NC2=O [II-65]
29 | 2.5 nM | CS(=O)(=O)CC(=O)Nc1c2c(nn1CCC1CC1)C[C@@]1(CCc3cc(CCC(F)(F)F)ccc31)NC2=O [II-66]
30 | 2.64 nM | CS(=O)(=O)CC(=O)Nc1c2c(nn1-c1ccc(F)c(F)c1)C[C@]1(CCOc3cc(OCC(F)(F)F)ccc31)NC2=O [II-67]
31 | 420 nM | COc1nccc(NCc2c3c(nn2CCC2CC2)C[C@@]2(CCc4cc(OCC(F)(F)F)ccc42)NC3=O)n1 [II-68]
32 | 43.9 nM | O=C1N[C@]2(CCc3cc(OCC(F)(F)F)ccc32)Cc2nn(CCC3CC3)c(CNc3ccnc(O)n3)c21 [II-69]
33 | 3.94 nM | CNS(=O)(=O)CC(=O)Nc1c2c(nn1-c1ccc(C#N)cn1)C[C@@]1(CCc3cc(OCC(F)(F)F)ccc31)NC2=O [II-70]
34 | 12.6 nM | Cc1nocc1-c1ccc2c(c1)CC[C@@]21Cc2nn(CCC3CC3)c(NC(=O)CS(C)(=O)=O)c2C(=O)N1 [II-71]
35 | 3.69 nM | N#Cc1ccc(-n2nc3c(c2NC(=O)C2CS(=O)(=O)C2)C(=O)N[C@@]2(CCc4cc(OCC(F)(F)F)ccc42)C3)nc1 [II-72]
36 | 2.3 nM | CS(=O)(=O)CC(=O)Nc1c2c(nn1-c1ccc(C#N)cn1)CC1(CN(c3c(F)cc(C(F)(F)F)cc3F)C1)NC2=O [II-74]
37 | 3.69 nM | CS(=O)(=O)CC(=O)Nc1c2c(nn1-c1ccc(C#N)cn1)C[C@]1(CCc3cc(Cl)ccc31)NC2=O [II-75]
38 | 6 nM | CS(=O)(=O)CC(=O)Nc1c2c(nn1CCC1CC1)C[C@@]1(CCc3cc(C4CC4)ccc31)NC2=O [II-76]
39 | 5.5 nM | CS(=O)(=O)CC(=O)Nc1c2c(nn1CCC1CC1)C[C@@]1(CCc3cc(OCC(F)F)ccc31)NC2=O [II-77]
40 | 45 nM | CS(=O)(=O)CC(=O)Nc1c2c(nn1-c1ccc(C#N)cn1)CC1(CN(c3nc(C(F)(F)F)cs3)C1)NC2=O [II-78]
41 | 110 nM | CS(=O)(=O)CC(=O)Nc1c2c(nn1-c1ccc(C#N)cn1)CC1(CN(c3nc(C(F)(F)F)co3)C1)NC2=O [II-79]
42 | 9.1 nM | CC(C)c1ccc(N2CC3(Cc4nn(-c5ccc(C#N)cn5)c(NC(=O)CS(C)(=O)=O)c4C(=O)N3)C2)cc1 [II-80]
43 | 46.6 nM | O=C1N[C@@]2(CCc3cc(OCC(F)(F)F)ccc32)Cc2nn(CCC3CC3)c(NC(=O)[C@H]3CCCS3(=O)=O)c21 [II-81]
44 | 2.49 nM | CS(=O)(=O)CC(=O)Nc1c2c(nn1CCC1CC1)C[C@@]1(CCc3cc(OCC4CC(F)(F)C4)ccc31)NC2=O [II-82]
45 | 1.99 nM | CS(=O)(=O)CC(=O)Nc1c2c(nn1CCC1CC1)C[C@@]1(CCc3cc(-c4cnn(C(F)(F)F)c4)ccc31)NC2=O [II-83]
46 | 45.5 nM | CS(=O)(=O)CC(=O)Nc1c2c(nn1CCCC(F)(F)F)C[C@@]1(NC2=O)c2ccc(OCC(F)(F)F)cc2CC1(F)F [II-85]
47 | 3.37 nM | Cc1ccc(-n2nc3c(c2NC(=O)CS(C)(=O)=O)C(=O)N[C@@]2(C3)c3ccc(OCC(F)(F)F)cc3CC2(F)F)nc1 [II-86]
48 | 2.63 nM | CS(=O)(=O)CC(=O)Nc1c2c(nn1-c1ccc(C#N)cn1)C[C@]1(NC2=O)c2ccc(OCC(F)(F)F)cc2CC1(F)F [II-87]
49 | 3.67 nM | CS(=O)(=O)CC(=O)Nc1c2c(nn1-c1ccc(F)c(F)c1)C[C@]1(NC2=O)c2ccc(OCC(F)(F)F)cc2CC1(F)F [II-88]
